Measurements: ChEMBL document CHEMBL1122998, “New antihistaminic theophylline or theobromine derivatives” (1985)

What was measured:
Rattus norvegicus [1] = experiment: Percentage decrease in antiallergic activity against cutaneous reaction to histamine in rat, by oral administration at a dose of 10 mg/kg; format: functional
Rattus norvegicus [2] = experiment: Percent decrease in antiallergic activity by antigen/antibody reaction assay in rat by oral administration at a dose of 10 mg/kg; format: functional
Cavia porcellus [3] = experiment: Percent decrease in bronchodilator activity against histamine-induced bronchospasm reaction in guinea pig by intraveneous administration at dose 10.5 ug/kg
Cavia porcellus [4] = experiment: Percent decrease in bronchodilator activity against acetylcholine-induced bronchospasm reaction in guinea pig by intraveneous administration at dose 250 ug/kg; format: functional
Cavia porcellus [5] = experiment: Percentage decrease in bronchodilator activity against serotonin-induced bronchospasm reaction in guinea pig by intraveneous administration at dose 250 ug/kg; format: functional
Rattus norvegicus [6] = experiment: Percent protection against Passive Cutaneous Anaphylaxis in rat after 4.0h at dose 100 mg/kg by peroral administration through exogenous histamine reaction; format: functional; settings: route oral
Rattus norvegicus [7] = experiment: Percent protection against Passive Cutaneous Anaphylaxis in rat after 0.25 hr at dose 100 mg/kg by peroral administration through exogenous histamine reaction; format: functional; settings: route oral
Rattus norvegicus [8] = experiment: Percent protection against Passive Cutaneous Anaphylaxis in rat after 0.25 hr at dose 100 mg/kg by peroral administration through antigen or antibody reaction; format: functional; settings: route oral
Rattus norvegicus [9] = experiment: Percent protection against Passive Cutaneous Anaphylaxis in rat after 1.0 hr at dose 100 mg/kg by peroral administration through antigen or antibody reaction; format: functional; settings: route oral
Rattus norvegicus [10] = experiment: Percent protection against Passive Cutaneous Anaphylaxis in rat after 4.0h at dose 100 mg/kg by peroral administration through antigen or antibody reaction; format: functional; settings: route oral
Rattus norvegicus [11] = experiment: Percent protection against Passive Cutaneous Anaphylaxis in rat after 1.0 hr at dose 100 mg/kg by peroral administration through exogenous histamine reaction; format: functional; settings: route oral
Rattus norvegicus [12] = experiment: Percent protection against Passive Cutaneous Anaphylaxis in rat after 3.0 hh at dose 100 mg/kg by peroral administration through exogenous histamine reaction; format: functional; settings: route oral
Rattus norvegicus [13] = experiment: Percent protection against Passive Cutaneous Anaphylaxis in rat after 2.0 hr at dose 100 mg/kg by peroral administration through antigen or antibody reaction; format: functional; settings: route oral
Rattus norvegicus [14] = experiment: Percent protection against Passive Cutaneous Anaphylaxis in rat after 3.0 hh at dose 100 mg/kg by peroral administration through antigen or antibody reaction; format: functional; settings: route oral
Rattus norvegicus [15] = experiment: Percent protection against Passive Cutaneous Anaphylaxis in rat after 2.0 hr at dose 100 mg/kg by peroral administration through exogenous histamine reaction; format: functional; settings: route oral
Cavia porcellus [16] = experiment: Percent decrease in bronchodilator activity against histamine-induced bronchospasm reaction in guinea pig by intraveneous administration at dose 250 ug/kg; format: functional
Cavia porcellus [17] = experiment: Percent decrease in bronchodilator activity against histamine-induced bronchospasm reaction in guinea pig by intraveneous administration at dose 4 mg/kg

SMILES | Decrease (Rattus norvegicus [1]) [%] | Decrease (Rattus norvegicus [2]) [%] | Decrease (Cavia porcellus [3]) [%] | Decrease (Cavia porcellus [4]) [%] | Decrease (Cavia porcellus [5]) [%] | Protection (Rattus norvegicus [6]) [%] | Protection (Rattus norvegicus [7]) [%] | Protection (Rattus norvegicus [8]) [%] | Protection (Rattus norvegicus [9]) [%] | Protection (Rattus norvegicus [10]) [%] | Protection (Rattus norvegicus [11]) [%] | Protection (Rattus norvegicus [12]) [%] | Protection (Rattus norvegicus [13]) [%] | Protection (Rattus norvegicus [14]) [%] | Protection (Rattus norvegicus [15]) [%] | Decrease (Cavia porcellus [16]) [%] | Decrease (Cavia porcellus [17]) [%]
Cn1c(=O)c2c(ncn2CCCN2CCN(CCCCSc3ccc(Cl)cc3)CC2)n(C)c1=O | 0 | 0 | 3 | 26 | 23 | – | – | – | – | – | – | – | – | – | – | – | –
Cn1c(=O)c2c(ncn2CC(=O)N2CCN(CCCSc3ccccc3)CC2)n(C)c1=O | 10 | 15 | 31 | 16 | 21 | – | – | – | – | – | – | – | – | – | – | – | –
Cn1c(=O)c2c(ncn2CCN2CCN(CCCSc3ccccc3)CC2)n(C)c1=O | 21 | 28 | 0 | 0 | 48 | – | – | – | – | – | – | – | – | – | – | – | –
Cc1ccc(SCCCN2CCN(CCCn3c(=O)c4c(ncn4C)n(C)c3=O)CC2)cc1 | 6.5 | 0 | 13 | 24 | 6 | – | – | – | – | – | – | – | – | – | – | – | –
Cn1c(=O)c2c(ncn2CCCN2CCN(CCCSc3ccccc3)CC2)n(C)c1=O | 62 | 60 | 95 | 23 | 69 | 0 | 46 | 98 | 45 | 0 | 23 | 0 | 45 | 0 | 28 | – | –
CC(=O)OC(CN1CCN(CCCSc2ccccc2)CC1)Cn1cnc2c1c(=O)n(C)c(=O)n2C (stereo not given) | 62 | 54 | – | 17 | 29 | – | – | – | – | – | – | – | – | – | – | 50 | –
Cc1ccc(SCCCN2CCN(CC(O)Cn3cnc4c3c(=O)n(C)c(=O)n4C)CC2)cc1 (stereo not given) | 24 | 19 | 5 | 0 | 0 | – | – | – | – | – | – | – | – | – | – | – | –
Cn1c(=O)c2c(ncn2CN2CCN(CCCSc3ccccc3)CC2)n(C)c1=O | 0 | 0 | 9 | 0 | 0 | – | – | – | – | – | – | – | – | – | – | – | –
Cc1cc(OCCCN2CCN(CC(O)Cn3c(=O)c4c(ncn4C)n(C)c3=O)CC2)cc(C)c1Cl (stereo not given) | 8 | 8 | 2 | 0 | 53 | – | – | – | – | – | – | – | – | – | – | – | –
Cn1c(=O)c2c(ncn2CC(O)CN2CCN(CCCOc3ccc(Cl)cc3)CC2)n(C)c1=O (stereo not given) | 44 | 22 | 19 | 0 | 0 | – | – | – | – | – | – | – | – | – | – | – | –
Cn1cnc2c1c(=O)n(CCCN1CCN(CCCOc3ccccc3)CC1)c(=O)n2C | 0 | 23 | 28 | 30 | 47 | – | – | – | – | – | – | – | – | – | – | – | –
Cn1c(=O)c2c(ncn2CC(O)CN2CCN(CCCOc3ccccc3)CC2)n(C)c1=O (stereo not given) | 78 | 94 | 87 | 23 | 43 | – | – | – | – | – | – | – | – | – | – | – | –
Cn1c(=O)c2c(ncn2CCCN2CCN(CC(O)CSc3ccccc3)CC2)n(C)c1=O (stereo not given) | 0 | 0 | 88 | 0 | 0 | – | – | – | – | – | – | – | – | – | – | – | –
Cn1c(=O)c2c(ncn2CC(O)CN2CCN(CCCSc3ccc(Cl)cc3)CC2)n(C)c1=O (stereo not given) | 67 | 35 | 24 | 0 | 0 | – | – | – | – | – | – | – | – | – | – | – | –
Cn1c(=O)c2c(ncn2C/C=C/CN2CCN(CCCSc3ccccc3)CC2)n(C)c1=O | 4 | 8 | 8 | 0 | 20 | – | – | – | – | – | – | – | – | – | – | – | –
CC(CN1c2ccccc2Sc2ccccc21)N(C)C (stereo not given) [PROMETHAZINE] | 58 | 30 | 40 | 0 | 0 | – | – | – | – | – | – | – | – | – | – | – | –
Cn1c(=O)c2c(ncn2CC(O)CN2CCN(CCCSc3ccccc3)CC2)n(C)c1=O (stereo not given) [TAZIFYLLINE] | 65 | 54 | 76 | 23 | 26 | 39 | 52 | 100 | 98 | 44 | 49 | 52 | 82 | 74 | 33 | – | –
Cn1c(=O)c2nc[nH]c2n(C)c1=O.O [THEOPHYLLINE] | 15 | 45 | – | 72 | 59 | – | – | – | – | – | – | – | – | – | – | – | 56
